“And” between values parts separate entries of the source, which are not always exact repeats. Identical values can stand only once.
Test system: RPMI-8226 cells
Assay: Gene expression profiling, NanoString nCounter PanCancer Pathways Panel, ROSALIND analysis
Assay type: cell-based, human
Settings: RPMI-8226, TCH-165 samples 1-3
Method: RPMI-8226 cells were treated with vehicle or TCH-165 (10 μM) for 4 h. Total RNA was obtained using the mirVana miRNA Isolation Kit, with phenol (Thermofisher Scientific; AM1560; Waltham, MA, USA). Total RNA was quantified by Qubit (Thermofisher Scientific; Q32855; Waltham, MA, USA). and gene expression was evaluated against the nCounter® PanCancer Pathways Panel^TM according to the standard NanoString protocol.
Data were analyzed by ROSALIND® [36] with a hyperscale architecture developed by ROSALIND, Inc. (San Diego, CA, USA). Normalization, fold changes and p-values were calculated using criteria provided by NanoString. ROSALIND follows the nCounter® Advanced Analysis protocol of dividing counts within a lane by the geometric mean of the normalizer probes from the same lane. Housekeeping probes to be used for normalization are selected based on the geNorm algorithm, as implemented in the NormqPCR R library. Fold changes and p-values are calculated using the fast method as described in the nCounter Advanced Analysis 2.0 User Manual. The p-value adjustment is performed using the Benjamini–Hochberg method of estimating false discovery rates (FDR). Clustering of genes for the final heatmap of differentially expressed genes was done using the PAM (Partitioning Around Medoids) method using the fpc R library. Hypergeometric distribution was used to analyze the enrichment of pathways, gene ontology, domain structure and other ontologies. The topGO R library was used to determine local similarities and dependencies between GO terms in order to perform Elim pruning correction. Several database sources were referenced for enrichment analysis, including Interpro [40], NCBI [41], MSigDB [42, 43], REACTOME [44], WikiPathways. Enrichment was calculated relative to a set of background genes relevant to the experiment.

Compound: CCOC(=O)[C@]1(c2ccccc2)N=C(c2ccc(OC)cc2)N(Cc2ccccc2)[C@@H]1c1ccc(NCc2ccccc2)cc1 [TCH-165]
- RPA3 normalized gene expression: 6.234 and 6.077 and 5.975
- RPS6KA5 normalized gene expression: 8.162 and 8.249 and 8.109
- RPS6KA6 normalized gene expression: 4.308 and 4.154 and 4.653
- RPS27A normalized gene expression: 16.3114 and 16.3789 and 16.3612
- RRAS2 normalized gene expression: 6.59 and 6.242 and 6.0682
- RUNX1T1 normalized gene expression: 4.649 and 5.3768 and 5.0682
- RUNX1 normalized gene expression: 7.156 and 7.154 and 7.31
- RXRG normalized gene expression: 5.758 and 5.569 and 5.1271
- SETBP1 normalized gene expression: 9.152 and 8.96 and 8.955
- SETD2 normalized gene expression: 9.224 and 9.1619 and 9.096
- SF3B1 normalized gene expression: 10.9301 and 10.7965 and 10.7773
- SFN normalized gene expression: 7.723 and 7.476 and 7.668
- SFRP1 normalized gene expression: 5.401 and 5.0613 and 4.731
- SFRP2 normalized gene expression: 4.723 and 4.427 and 4.613
- SFRP4 normalized gene expression: 1.986 and 2.3768 and 2.483
- SGK2 normalized gene expression: 4.401 and 4.324 and 4.0682
- SHC1 normalized gene expression: 10.583 and 10.7262 and 10.7216
- SHC2 normalized gene expression: 3.723 and 3.962 and 3.653
- SHC3 normalized gene expression: 6.308 and 6.364 and 6.251
- SIN3A normalized gene expression: 9.8539 and 9.738 and 9.646
- SIRT4 normalized gene expression: 5.156 and 4.739 and 5.238
- SIX1 normalized gene expression: 3.571 and 3.3768 and 4.1271
- SKP1 normalized gene expression: 12.8613 and 12.7826 and 12.7408
- SKP2 normalized gene expression: 8.831 and 8.717 and 8.705
- SMAD2 normalized gene expression: 9.453 and 9.37 and 9.493
- SMAD3 normalized gene expression: 6.723 and 6.646 and 6.759
- SMAD4 normalized gene expression: 9.445 and 9.475 and 9.381
- SMAD9 normalized gene expression: 4.208 and 3.657 and 4.238
- SMARCA4 normalized gene expression: 10.8723 and 10.9931 and 10.958
- SMARCB1 normalized gene expression: 9.431 and 9.4165 and 9.399
- SMC1A normalized gene expression: 10.4464 and 10.4079 and 10.3505
- SMC1B normalized gene expression: 4.401 and 3.739 and 3.731
- SMC3 normalized gene expression: 10.9533 and 10.9237 and 10.9519
- SMO normalized gene expression: 5.986 and 5.657 and 5.341
- SOCS1 normalized gene expression: 6.892 and 6.769 and 6.683
- SOCS2 normalized gene expression: 5.955 and 5.476 and 5.5707
- SOCS3 normalized gene expression: 5.827 and 5.351 and 5.613
- SOS1 normalized gene expression: 8.45 and 8.321 and 8.235
- SOS2 normalized gene expression: 7.434 and 7.338 and 7.36
- SOST normalized gene expression: 3.86 and 3.3768 and 3.805
- SOX9 normalized gene expression: 5.044 and 5.093 and 4.731
- SP1 normalized gene expression: 7.695 and 7.694 and 7.736
- SPOP normalized gene expression: 6.308 and 6.324 and 6.0531
- SPP1 normalized gene expression: 11.9193 and 11.8738 and 11.9244
- SPRY1 normalized gene expression: 4.308 and 4.154 and 4.184
- SPRY2 normalized gene expression: 5.793 and 5.154 and 5.0682
- SRSF2 normalized gene expression: 10.5286 and 10.321 and 10.2662
- SSX1 normalized gene expression: 4.571 and 4.614 and 4.341
- STAG2 normalized gene expression: 11.0854 and 11.0452 and 11.0734
- STAT1 normalized gene expression: 8.92 and 8.846 and 9.0757
- STAT3 normalized gene expression: 9.132 and 9.111 and 9.089
- STAT4 normalized gene expression: 7.259 and 7.045 and 7.149
- STK11 normalized gene expression: 7.868 and 7.592 and 7.623
- STMN1 normalized gene expression: 12.569 and 12.5392 and 12.5363
- SYK normalized gene expression: 10.2633 and 10.2568 and 10.1565
- TCF3 normalized gene expression: 9.548 and 9.673 and 9.547
- TCL1B normalized gene expression: 2.986 and 2.569 and 2.943
- TET2 normalized gene expression: 7.142 and 7.021 and 6.918
- TFDP1 normalized gene expression: 10.7659 and 10.7019 and 10.7109
- TGFB1 normalized gene expression: 8.78 and 8.675 and 8.641
- TGFB2 normalized gene expression: 3.86 and 3.27 and 3.943
- TGFB3 normalized gene expression: 4.986 and 4.891 and 4.483
- TGFBR2 normalized gene expression: 7.169 and 7.004 and 6.787
- THBS1 normalized gene expression: 5.445 and 4.927 and 4.769
- THBS4 normalized gene expression: 3.208 and 2.569 and 3.291
- TIAM1 normalized gene expression: 5.793 and 5.476 and 5.414
- TLR2 normalized gene expression: 6.355 and 5.855 and 5.876
- TLR4 normalized gene expression: 8.52 and 8.18 and 8.197
- TLX1 normalized gene expression: 3.86 and 4.427 and 4.1271
- TMPRSS2 normalized gene expression: 6.182 and 6.093 and 6.1126
- TNC normalized gene expression: 4.723 and 4.7789 and 4.39
- TNF normalized gene expression: 4.986 and 4.817 and 5.0682
- TNFAIP3 normalized gene expression: 7.658 and 7.488 and 7.528
- TNFRSF10A normalized gene expression: 7.986 and 7.827 and 7.893
- TNFRSF10B normalized gene expression: 6.61 and 6.5 and 6.602
- TNFRSF10C normalized gene expression: 4.101 and 3.891 and 3.943
- TNFRSF10D normalized gene expression: 6.827 and 6.476 and 6.461
- TNFSF10 normalized gene expression: 8.202 and 8.1619 and 8.225
- TNR normalized gene expression: 5.686 and 5.297 and 5.5707
- TP53 normalized gene expression: 10.0117 and 9.981 and 9.929
- TPO normalized gene expression: 4.924 and 5.184 and 5.156
- TSC1 normalized gene expression: 8.714 and 8.273 and 8.399
- TSHR normalized gene expression: 4.649 and 4.476 and 4.39
- TSPAN7 normalized gene expression: 6.776 and 6.891 and 6.539
- TTK normalized gene expression: 9.89 and 9.8374 and 9.804
- U2AF1 normalized gene expression: 12.4063 and 12.4515 and 12.4562
- UBB normalized gene expression: 12.5802 and 12.4733 and 12.4875
- UBE2T normalized gene expression: 10.5402 and 10.5496 and 10.5687
- UTY normalized gene expression: 3.86 and 4.093 and 4.0682
- VEGFA normalized gene expression: 10.7951 and 10.7989 and 10.8309

Reference: paper PMC9138505, “Small Molecule 20S Proteasome Enhancer Regulates MYC Protein Stability and Exhibits Antitumor Activity in Multiple Myeloma” (Biomedicines, 2022)
